# Test results taken from patent publication US20260209262A1, “MEMBRANE FILTRATION-ASSISTED SOLUTION PHASE OLIGONUCLEOTIDE SYNTHESIS” (EXACTMER LIMITED, priority 2022, published 2026).
# Experiment: Solubility of protected phosphoramidites in acetonitrile (aliquots added until a clear solution)
# Type: physicochemical
# Settings: for Solubility: 30° C.
# Experimental: A range of 5′-O-Dmtr-nucleoside-3′-O-(cyanoethyl-N, N-diisopropyl) phosphoramidites (FIG. 1. compounds 1-5) were studied to determine their suitability for solution-phase oligonucleotide synthesis in acetonitrile. Each compound (ca. 0.5 g) was placed in a flask with a magnetic stirrer immersed in an oil bath held at 30° C. To the flask was added acetonitrile (0.200 mL) and the contents stirred for 2 min. After this, further aliquots of acetonitrile (0.050 mL) were added, each time followed by stirring for 2 min. The volume of acetonitrile required to establish a clear solution was recorded. The solubility so determined is recorded in Table 1.
SMILES,solubility in acetonitrile,Solubility,increase in solubility by protection of N3 (relative to unprotected 2a)
COc1ccc(C(OC[C@H]2O[C@@H](n3ccc(=O)[nH]c3=O)[C@H](OC)[C@@H]2OP(OCCC#N)N(C(C)C)C(C)C)(c2ccccc2)c2ccc(OC)cc2)cc1 (some centres unmarked) [Compound 1a],50 mM,70 mM,–
COc1ccc(C(OC[C@H]2O[C@@H](n3ccc(=O)n(C(=O)c4ccccc4)c3=O)[C@H](OC)[C@@H]2OP(OCCC#N)N(C(C)C)C(C)C)(c2ccccc2)c2ccc(OC)cc2)cc1 (some centres unmarked) [Compound 1b],–,1920 mM,–
COc1ccc(C(OCC2OC(n3ccc(=O)n(C(=O)c4ccc(C(C)(C)C)cc4)c3=O)C(OC)C2OP(OCCC#N)N(C(C)C)C(C)C)(c2ccccc2)c2ccc(OC)cc2)cc1 (centres unmarked) [Compound 1c],–,1740 mM,–
COc1ccc(C(=O)n2c(=O)ccn(C3OC(COC(c4ccccc4)(c4ccc(OC)cc4)c4ccc(OC)cc4)C(OP(OCCC#N)N(C(C)C)C(C)C)C3OC)c2=O)cc1 (centres unmarked) [Compound 1d],–,2420 mM,–
COc1ccc(C(OCC2OC(n3cc(C)c(=O)[nH]c3=O)CC2OP(OCCC#N)N(C(C)C)C(C)C)(c2ccccc2)c2ccc(OC)cc2)cc1 (centres unmarked) [Compound 2a],–,1160 mM,–
COc1ccc(C(OC[C@H]2O[C@@H](n3cc(C)c(=O)n(C(=O)c4ccccc4)c3=O)C[C@@H]2OP(OCCC#N)N(C(C)C)C(C)C)(c2ccccc2)c2ccc(OC)cc2)cc1 (some centres unmarked) [Compound 2b],–,1530 mM,more than 30%
COc1ccc(C(OC[C@H]2O[C@@H](n3ccc(NC(C)=O)nc3=O)[C@H](OC)[C@@H]2OP(OCCC#N)N(C(C)C)C(C)C)(c2ccccc2)c2ccc(OC)cc2)cc1 (some centres unmarked) [Compound 3],–,1300 mM,–
COc1ccc(C(OCC2OC(n3cnc4c(NC(=O)c5ccccc5)ncnc43)C(OC)C2OP(OCCC#N)N(C(C)C)C(C)C)(c2ccccc2)c2ccc(OC)cc2)cc1 (centres unmarked) [Compound 4],–,1210 mM,–
COc1ccc(C(OCC2OC(n3cnc4c(=O)[nH]c(NC(=O)C(C)C)nc43)C(OC)C2OP(OCCC#N)N(C(C)C)C(C)C)(c2ccccc2)c2ccc(OC)cc2)cc1 (centres unmarked) [Compound 5],–,1280 mM,–
